We go through 18 molecules from patent US8129371B2, “Thienopyrimidine and pyrazolopyrimidine compounds and their use as mTOR kinase and PI3 kinase inhibitors” (Wyeth LLC, priority 2007, dated 2012).

In general, IC50 refers to the concentration needed to halve the response being measured.

Where two headings read alike, the source gives them in different places.

Experiment [1] concerns the target T1, PI3K (Homo sapiens, UniProt P48736).
T1 construct: PI3 Kinase γ IC50; other: PI3 Kinase γ; other: PI3 Kinase γ isoform, fluorescence polarization
As to the kind of experiment: Fluorescence polarization assay for PI3K. Format: biochemical. The note with it: read-out: PI3 Kinase γ IC50. Put shortly: (§1)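 PI3K was preincubated with compound (final DMSO 1%), and the reaction was started with PIP2/ATP substrate and run 30–60 min. It was stopped with a detector mix giving 10 nM red probe and 70 nM GST-GRP.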
Background: In fluorescence polarisation assays a small probe gives low polarisation when free and higher when bound to something large.

The target in experiment [2] is T2, PI3K (Homo sapiens, UniProt P42336).
T2 construct: PI3 Kinase α IC50; other: PI3 Kinase α; other: PI3 Kinase α isoform, fluorescence polarization
T2 sequence (P42336 whole entry, canonical isoform): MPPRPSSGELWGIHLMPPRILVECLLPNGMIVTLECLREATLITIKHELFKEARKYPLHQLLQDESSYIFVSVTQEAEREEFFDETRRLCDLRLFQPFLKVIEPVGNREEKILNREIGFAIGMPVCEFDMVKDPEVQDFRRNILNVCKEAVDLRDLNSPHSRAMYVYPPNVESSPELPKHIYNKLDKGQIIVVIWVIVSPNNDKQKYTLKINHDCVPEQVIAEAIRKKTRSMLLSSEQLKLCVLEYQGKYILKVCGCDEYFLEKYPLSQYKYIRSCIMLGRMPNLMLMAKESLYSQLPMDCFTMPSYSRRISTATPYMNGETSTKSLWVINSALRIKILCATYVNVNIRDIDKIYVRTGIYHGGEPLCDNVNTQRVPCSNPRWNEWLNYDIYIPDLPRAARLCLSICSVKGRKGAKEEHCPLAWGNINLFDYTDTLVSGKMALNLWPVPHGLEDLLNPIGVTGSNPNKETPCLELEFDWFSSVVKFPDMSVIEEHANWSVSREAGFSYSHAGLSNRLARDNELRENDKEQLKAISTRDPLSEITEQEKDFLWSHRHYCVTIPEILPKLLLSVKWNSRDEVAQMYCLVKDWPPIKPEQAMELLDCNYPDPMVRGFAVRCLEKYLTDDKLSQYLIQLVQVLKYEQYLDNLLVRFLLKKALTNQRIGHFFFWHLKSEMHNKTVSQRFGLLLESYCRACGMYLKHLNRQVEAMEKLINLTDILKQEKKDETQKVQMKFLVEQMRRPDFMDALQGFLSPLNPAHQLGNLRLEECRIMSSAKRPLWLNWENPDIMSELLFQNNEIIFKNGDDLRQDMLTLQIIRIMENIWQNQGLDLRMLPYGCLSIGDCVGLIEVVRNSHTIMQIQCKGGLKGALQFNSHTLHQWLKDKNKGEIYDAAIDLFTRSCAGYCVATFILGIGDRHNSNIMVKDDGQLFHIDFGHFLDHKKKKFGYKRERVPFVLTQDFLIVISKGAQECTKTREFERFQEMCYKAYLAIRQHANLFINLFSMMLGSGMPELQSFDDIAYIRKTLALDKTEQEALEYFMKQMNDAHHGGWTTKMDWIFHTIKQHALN
Description: Fluorescence polarization assay for PI3K. As to conditions: read-out: PI3 Kinase α IC50. Format: biochemical. Put shortly: as §1

The test system of the next experiment is breast line MDA468. As to the kind of experiment: In vitro cell culture growth assay (MTS), MDA468. It is filed as cell-based. The note with it: Homo sapiens, 72 h, MDA468 cells, three days after drug treatment. Put shortly:
(§2)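 Following a one-day attachment period, cells received inhibitors for 3 days. MTS metabolism by viable cells was quantified at 490 nm absorbance and converted to percent of same-plate vehicle control growth.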

A further experiment has as its system prostate line LNCap. As to the kind of experiment: In vitro cell culture growth assay (MTS), LNCap. It is filed as cell-based. As to conditions: Homo sapiens, LNCaP, 72 h, LNCap cells, three days after drug treatment. Put shortly: as §2
The target in another experiment is T3, Human mTOR (FLAG-TOR) (Homo sapiens, UniProt P42345).
T3 construct: FLAG
Description: Human mTOR kinase assay with purified enzyme, DELFIA format. It is filed as biochemical. Put shortly: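 Purified FLAG-mTOR in HEPES pH 7.4 buffer with 10 mM MnCl2 was preincubated with inhibitor and reacted 2 h at room temperature with His6-S6K substrate, then stopped with EDTA/EGTA. Phospho-T389 S6K detected by DELFIA with Eu-labelled antibody (40 ng/mL) after plate capture; inhibition computed from signal.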

[3] abbreviates: PI3 Kinase γ isoform, fluorescence polarization.
The mark [4] stands for this setting: PI3 Kinase α isoform, fluorescence polarization.
The mark [5] stands for this setting: purified human mTOR enzyme, DELFIA format.

T1 sequence (P48736 whole entry, canonical isoform): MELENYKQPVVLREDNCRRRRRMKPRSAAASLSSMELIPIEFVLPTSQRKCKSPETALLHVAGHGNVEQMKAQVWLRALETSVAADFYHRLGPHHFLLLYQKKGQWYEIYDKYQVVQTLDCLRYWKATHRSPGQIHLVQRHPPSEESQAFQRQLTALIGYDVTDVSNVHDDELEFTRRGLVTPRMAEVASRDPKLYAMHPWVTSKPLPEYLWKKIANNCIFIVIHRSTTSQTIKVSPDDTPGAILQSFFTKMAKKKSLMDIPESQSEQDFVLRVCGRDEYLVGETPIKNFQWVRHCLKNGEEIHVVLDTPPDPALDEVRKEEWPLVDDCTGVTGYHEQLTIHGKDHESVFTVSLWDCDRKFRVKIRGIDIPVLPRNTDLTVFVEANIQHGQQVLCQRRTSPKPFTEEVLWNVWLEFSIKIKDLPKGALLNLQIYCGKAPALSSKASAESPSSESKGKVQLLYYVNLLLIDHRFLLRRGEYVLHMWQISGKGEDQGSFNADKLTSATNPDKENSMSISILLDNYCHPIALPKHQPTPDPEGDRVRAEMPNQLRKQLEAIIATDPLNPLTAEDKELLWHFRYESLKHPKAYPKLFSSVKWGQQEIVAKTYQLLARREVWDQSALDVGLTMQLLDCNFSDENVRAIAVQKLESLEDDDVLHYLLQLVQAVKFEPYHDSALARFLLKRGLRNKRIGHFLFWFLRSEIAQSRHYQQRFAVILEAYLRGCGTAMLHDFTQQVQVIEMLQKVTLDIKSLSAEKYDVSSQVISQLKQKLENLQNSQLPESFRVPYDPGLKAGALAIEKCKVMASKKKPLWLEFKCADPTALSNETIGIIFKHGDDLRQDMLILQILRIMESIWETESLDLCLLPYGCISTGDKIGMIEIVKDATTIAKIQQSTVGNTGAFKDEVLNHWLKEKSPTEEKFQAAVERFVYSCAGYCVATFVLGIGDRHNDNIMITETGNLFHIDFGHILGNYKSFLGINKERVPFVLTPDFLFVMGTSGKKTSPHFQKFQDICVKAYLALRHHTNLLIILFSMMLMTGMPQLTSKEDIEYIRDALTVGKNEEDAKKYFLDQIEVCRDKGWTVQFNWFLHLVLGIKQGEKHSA

Consider `O=C(Nc1ccc(-c2nc(N3CC4CCC(C3)O4)c3sccc3n2)cc1)NC1CC1` [Example 410, 1-cyclopropyl-3-{4-[4-(8-oxa-3-azabicyclo[3.2.1]oct-3-yl)thieno[3,2-d]pyrimidin-2-yl]phenyl}urea], for which the IC50 at PI3K [1] (setting [3]) is no less than 10000 nM; at PI3K [2] (setting [4]) it was 1360 nM; in the experiment with breast line MDA468, 780 nM; in the experiment with prostate line LNCap, 40 nM; against Human mTOR (FLAG-TOR) (setting [5]) it was 0.71 nM.
With `COCC(COC)n1ncc2c(N3CC4CCC(C3)O4)nc(-c3ccc(NC(=O)Nc4ccc(N5CCN(C)CC5)cc4)cc3)nc21` [Example 327, 1-(4-{1-[2-methoxy-1-(methoxymethyl)ethyl]-4-(8-oxa-3-azabicyclo[3.2.1]oct-3-yl)-1H-pyrazolo[3,4-d]pyrimidin-6-yl}phenyl)-3-[4-(4-methylpiperazin-1-yl)phenyl]urea], the IC50 stood at 3490 nM on PI3K [1] (setting [3]); 764 nM on PI3K [2] (setting [4]); 50 nM in the experiment on breast line MDA468; 3 nM with prostate line LNCap; 3.75 nM on Human mTOR (FLAG-TOR) (setting [5]).
For `COC(=O)N1CCC(n2ncc3c(N4C5CCC4COC5)nc(-c4ccc(NC(=O)Nc5ccc(CN(C)C)cc5)cc4)nc32)CC1` [Example 366] the same measures were 1500 nM, 2070 nM, 20 nM, 10 nM and 0.795 nM.
Taken in the same sequence, the figures for `CO[C@H]1CC[C@@H](n2ncc3c(N4CC5CCC(C4)O5)nc(-c4ccc(NC(=O)NC5CC5)cc4)nc32)CC1` (relative stereo) [Example 398, 1-cyclopropyl-3-{4-[1-(cis-4-methoxycyclohexyl)-4-(8-oxa-3-azabicyclo[3.2.1]oct-3-yl)-1H-pyrazolo[3,4-d]pyrimidin-6-yl]phenyl}urea] were 5650 nM, 1150 nM, 20 nM, 1 nM and 0.52 nM.
As for `CCn1ncc2c(N3CC4CCC(C3)O4)nc(-c3ccc(NC(=O)N[C@H]4CC[C@@H](N)CC4)cc3)nc21` (relative stereo) [Example 229, 1-(cis-4-aminocyclohexyl)-3-{4-[1-ethyl-4-(8-oxa-3-azabicyclo[3.2.1]oct-3-yl)-1H-pyrazolo[3,4-d]pyrimidin-6-yl]phenyl}urea], the IC50 on PI3K [1] (PI3 Kinase γ) is greater than 10000 nM; on PI3K [2] (PI3 Kinase α), 2850 nM; in the experiment with breast line MDA468 it was 4000 nM; in the experiment with prostate line LNCap, 4900 nM; against Human mTOR (FLAG-TOR) it was 245 nM.
Regarding `CNC(=O)Nc1ccc(-c2nc(N3C4CCC3COC4)c3cnn(C4CCN(C(=O)OC)CC4)c3n2)cc1` [Example 356, methyl 4-[6-{4-[(methylcarbamoyl)amino]phenyl}-4-(3-oxa-8-azabicyclo[3.2.1]oct-8-yl)-1H-pyrazolo[3,4-d]pyrimidin-1-yl]piperidine-1-carboxylate], the half-maximal inhibitory concentration (IC50) was 6740 nM at PI3K [1] (setting [3]); 4270 nM at PI3K [2] (setting [4]); 50 nM in the experiment with breast line MDA468; 30 nM in the experiment on prostate line LNCap; 0.22 nM against Human mTOR (FLAG-TOR) (setting [5]).
As to `CNC(=O)Nc1ccc(-c2nc(N3CC4CCC(C3)O4)c3cnn(C4CCC5(CC4)OCC(C)(C)CO5)c3n2)cc1` [Example 152, 1-{4-[1-(3,3-dimethyl-1,5-dioxaspiro[5.5]undec-9-yl)-4-(8-oxa-3-azabicyclo[3.2.1]oct-3-yl)-1H-pyrazolo[3,4-d]pyrimidin-6-yl]phenyl}-3-methylurea], the IC50 at PI3K [1] (PI3 Kinase γ) is greater than 10000 nM; at PI3K [2] (PI3 Kinase α), 566 nM; in the experiment on breast line MDA468, 180 nM; in the experiment with prostate line LNCap, 3 nM; against Human mTOR (FLAG-TOR), 0.6 nM.
In the case of `COC1CCC(n2ncc3c(N4CC5CCC(C4)O5)nc(-c4ccc(NC(=O)OCCO)cc4)nc32)CC1` (stereo not drawn) [Example 311, 2-hydroxyethyl {4-[1-(4-methoxycyclohexyl)-4-(8-oxa-3-azabicyclo[3.2.1]oct-3-yl)-1H-pyrazolo[3,4-d]pyrimidin-6-yl]phenyl}carbamate], the IC50 on PI3K [1] (setting [3]) was greater than 10000 nM; on PI3K [2] (setting [4]), 3840 nM; in the experiment on breast line MDA468 it was 120 nM; in the experiment with prostate line LNCap it was 2 nM; at Human mTOR (FLAG-TOR) (setting [5]) it was 0.86 nM.
`CNC(=O)Nc1ccc(-c2nc(N3CC4CCC(C3)O4)c3cnn(CCO)c3n2)cc1` [Example 193, 1-{4-[1-(2-hydroxyethyl)-4-(8-oxa-3-azabicyclo[3.2.1]oct-3-yl)-1H-pyrazolo[3,4-d]pyrimidin-6-yl]phenyl}-3-methylurea]: the concentration for half-maximal inhibition (IC50) at PI3K [1] (PI3 Kinase γ) was greater than 10000 nM; at PI3K [2] (PI3 Kinase α), 375 nM; in the experiment on breast line MDA468 it was 980 nM; in the experiment with prostate line LNCap it was 650 nM; on Human mTOR (FLAG-TOR), 2.85 nM.
For the molecule `CC(C)(C)n1ncc2c(N3CC4CCC(C3)O4)nc(-c3ccc(NC(=O)NC4CC4)cc3)nc21` [Example 96], the IC50 at PI3K [1] (PI3 Kinase γ) is greater than 10000 nM; at PI3K [2] (PI3 Kinase α), 1140 nM; with breast line MDA468 it was greater than 60000 nM; in the experiment with prostate line LNCap, 1700 nM; against Human mTOR (FLAG-TOR) it was 0.4 nM.
Take `CNC(=O)Nc1ccc(-c2nc(N3CC4CCC(C3)O4)c3cnn(C4CCN(Cc5cccnc5)CC4)c3n2)cc1` [Example 27, 1-methyl-3-(4-{4-(8-oxa-3-azabicyclo[3.2.1]oct-3-yl)-1-[1-(pyridin-3-ylmethyl)piperidin-4-yl]-1H-pyrazolo[3,4-d]pyrimidin-6-yl}phenyl)urea]: the IC50 was greater than 10000 nM at PI3K [1] (PI3 Kinase γ); 677 nM at PI3K [2] (PI3 Kinase α); 27 nM in the experiment with breast line MDA468; 0.8 nM in the experiment with prostate line LNCap; 0.47 nM against Human mTOR (FLAG-TOR).
Turning to `O=C(Nc1ccc(-c2nc(N3CC4C[C@@H](O)C(C3)O4)c3cnn(CC(F)(F)F)c3n2)cc1)OCCO` (stereo partly drawn) [Example 379, 2-hydroxyethyl (4-{4-[(6R)-6-hydroxy-8-oxa-3-azabicyclo[3.2.1]oct-3-yl]-1-(2,2,2-trifluoroethyl)-1H-pyrazolo[3,4-d]pyrimidin-6-yl}phenyl)carbamate], the half-inhibitory concentration (IC50) was greater than 10000 nM at PI3K [1] (setting [3]); greater than 10000 nM at PI3K [2] (setting [4]); 5000 nM in the experiment on breast line MDA468; 6800 nM in the experiment on prostate line LNCap; 245 nM against Human mTOR (FLAG-TOR) (setting [5]).
With `COC1CCC(n2ncc3c(N4CC5CCC(C4)O5)nc(-c4ccc(NC(=O)Nc5ccc(N6CCN(C)CC6)nc5)cc4)nc32)CC1` (stereo not drawn) [Example 309, 1-{4-[1-(4-methoxycyclohexyl)-4-(8-oxa-3-azabicyclo[3.2.1]oct-3-yl)-1H-pyrazolo[3,4-d]pyrimidin-6-yl]phenyl}-3-[6-(4-methylpiperazin-1-yl)pyridin-3-yl]urea], the half-maximal inhibitory concentration (IC50) on PI3K [1] (setting [3]) was 2670 nM; at PI3K [2] (setting [4]), 336 nM; in the experiment with breast line MDA468 it was 2 nM; in the experiment with prostate line LNCap it was less than 1 nM; against Human mTOR (FLAG-TOR) (setting [5]) it was 0.385 nM.
For `CCNC(=O)Nc1ccc(-c2nc(N3CC4CCC(C3)O4)c3cnn(C4CCC(N5CCN(C)CC5)CC4)c3n2)cc1` (stereo not drawn) [Example 370, 1-ethyl-3-(4-{1-[4-(4-methylpiperazin-1-yl)cyclohexyl]-4-(8-oxa-3-azabicyclo[3.2.1]oct-3-yl)-1H-pyrazolo[3,4-d]pyrimidin-6-yl}phenyl)urea] the same measures were 6510 nM, 2150 nM, 400 nM, 130 nM and 0.985 nM.
Taken in the same sequence, the figures for `COC(=O)Nc1ccc(-c2nc(N3CC4CCC(C3)O4)c3sccc3n2)cc1` [Example 416, methyl {4-[4-(8-oxa-3-azabicyclo[3.2.1]oct-3-yl)thieno[3,2-d]pyrimidin-2-yl]phenyl}carbamate] were greater than 10000 nM, 6200 nM, 9100 nM, 1850 nM and 8.6 nM.
On to `CO[C@H]1CC[C@H](n2ncc3c(N4CC5CCC(C4)O5)nc(-c4ccc(NC(=O)NC5CC5)cc4)nc32)CC1` (relative stereo) [Example 399, 1-cyclopropyl-3-{4-[1-(trans-4-methoxycyclohexyl)-4-(8-oxa-3-azabicyclo[3.2.1]oct-3-yl)-1H-pyrazolo[3,4-d]pyrimidin-6-yl]phenyl}urea], for which the half-maximal inhibitory concentration (IC50) at PI3K [1] (setting [3]) is 6600 nM; on PI3K [2] (setting [4]), 1500 nM; with breast line MDA468, 41 nM; in the experiment on prostate line LNCap, 1 nM; against Human mTOR (FLAG-TOR) (setting [5]), 0.52 nM.
For `CCn1ncc2c(N3CC4CCC(C3)O4)nc(-c3ccc(NC(=O)Nc4ccc(C(N)=O)cc4)cc3)nc21` [Example 285, 4-[({4-[1-ethyl-4-(8-oxa-3-azabicyclo[3.2.1]oct-3-yl)-1H-pyrazolo[3,4-d]pyrimidin-6-yl]phenyl}carbamoyl)amino]benzamide], the concentration for half-maximal inhibition (IC50) on PI3K [1] (PI3 Kinase γ) was 524 nM; at PI3K [2] (PI3 Kinase α), 23 nM; in the experiment with breast line MDA468, 1 nM; in the experiment on prostate line LNCap, less than 1 nM; against Human mTOR (FLAG-TOR) it was 0.105 nM.
As for `O=C(Nc1ccncc1)Nc1ccc(-c2nc(N3CC4CCC(C3)O4)c3cnn(Cc4ccccc4)c3n2)cc1` [Example 79, 1-{4-[1-benzyl-4-(8-oxa-3-azabicyclo[3.2.1]oct-3-yl)-1H-pyrazolo[3,4-d]pyrimidin-6-yl]phenyl}-3-pyridin-4-ylurea], the 50% inhibitory concentration (IC50) on PI3K [1] (PI3 Kinase γ) was greater than 10000 nM; on PI3K [2] (PI3 Kinase α) it was 1980 nM; with breast line MDA468, 150 nM; with prostate line LNCap it was 20 nM; against Human mTOR (FLAG-TOR), 1.9 nM.
